Measurements published in PMC12169680, “Design and Mechanistic Analysis of a Potent Bivalent Inhibitor of Transthyretin Amyloid Fibrillogenesis” (Journal of Medicinal Chemistry, 2025).

Assays:
V122I TTR = molecular target: T1, V122I TTR (Homo sapiens, UniProt P02766, V142I); assay: Inhibition of mechano-enzymatic fibrillogenesis (ThT); type: biochemical; conditions: for antifibrillogenic activity, in words: V122I TTR
T1 construct: 1-127; His6 (N); TEV cleavage site (N); made in house; host or cells: E. coli BL21 (DE3)
Procedure: To test their potency as inhibitors of TTR fibril formation, the 15 ligands were evaluated for their ability to inhibit the mechano-enzymatic mechanism of fibrillogenesis of V122I TTR, which is one of the most common amyloidogenic variants, , causing a disease with severity intermediate between the wild-type and other rare, more aggressive types of amyloidosis. […] Biochemical activity of ligands together with their physicochemical properties (i.e., cLogD, TPSA) were taken into consideration and B26 was finally selected as the most promising lead for further studies (Figure A). […] Prototype mds84 was also included for comparison. […] Although higher molar ratios of the monovalent ligands did inhibit fibrillogenesis, this cannot be replicated in vivo because the negative cooperativity of TTR cannot be overcome at feasible drug dosage. ,
Recombinant V122I TTR at 0.5 mg/mL (9 μM) in PBS, pH 7.4 was preincubated (37 °C for 30 min) with an equimolar concentration of ligand (or DMSO alone) before adding trypsin (5 ng/μL). Protein fibrillogenesis was carried out in glass vials stirred at 1400 rpm (IKA magnetic stirrer), 37 °C and spectrophotometric turbidity at 400 nm was used to monitor fibril formation over time until it reached a plateau at 96 h.
Analysis of amyloid material harvested from each sample at the end of the fibrillogenesis was carried out using Thioflavin T (ThT) emission fluorescence and Congo red staining. For these analyses, samples were centrifuged 20 min at 11,600g and pellets were thoroughly rinsed with PBS to remove nonbound ligand, resuspended with 100 μL PBS, pH 7.4, containing 10 μM Thioflavin T (ThT) in Costar 96-well black-wall plates. Bottom fluorescence values (excitation 440 nm, emission 480 nm) were recorded using a BMG LABTECH FLUostar Omega plate reader. Each value was normalized to the ThT signal of the TTR sample without ligand.

[1] = molecular target: T2, isolated recombinant wild-type TTR (Homo sapiens, UniProt P02766); assay: Displacement of 125I-T4 from isolated wild-type TTR; type: binding; conditions: for IC50: ligand concentration reducing binding of 125I-thyroxine by isolated recombinant wild-type TTR by 50%, mean ± SD, read-out: bIC50; for IC50 in buffer (bIC50) compared to mds84, in words: isolated TTR
T2 construct: Native TTR is a noncovalent homotetramer of β-sheet-rich 127-residue protomers; His6 (N); TEV cleavage site (N); made in house; host or cells: E. coli BL21 (DE3)
Procedure: Competition of ligands with thyroxine for binding by TTR was assayed quantitatively by a previously described procedure.

[2] = molecular target: T3, wild-type TTR in normal human plasma (Homo sapiens, UniProt P02766); assay: Displacement of 125I-T4 from TTR in normal human plasma; type: binding; conditions: for binding to TTR in plasma, in words: normal human plasma
T3 construct: TTR in whole plasma, from individuals homozygous for wild-type TTR; from tissue; host or cells: whole human plasma from individuals homozygous for wild-type TTR

[3] = residual V122I TTR fibrillar aggregation with equimolar ligand, ThT emission normalized to protein without ligand, mean ± SD
[4] = supplementary CSV, residual V122I TTR aggregation, equimolar ligand
[5] = ligand concentration reducing binding of 125I-thyroxine by wild-type TTR by 50% in normal human plasma, mean ± SD

Structure (SMILES)	antifibrillogenic activity, in words (V122I TTR; equimolar ligand)	Agg (%) (V122I TTR; [3])	Agg (%) (V122I TTR; [4])	IC50 [1] [nM]	binding to TTR in plasma, in words [2]	IC50 ([2]; supplementary CSV, TTR in normal human plasma) [nM]	IC50 [2, 5] [nM]	inhibition of V122I TTR amyloid formation at equimolar ligand/protein, in words (V122I TTR; 9 μM V122I TTR, equimolar concentration, bivalent vs monovalent ligands)	IC50 in buffer (bIC50) compared to mds84, in words [1]
O=C(O)CCc1cc(Cl)c(OCC[C@@H](O)[C@H](O)CCOc2c(Cl)cc(Nc3ccccc3C(=O)O)cc2Cl)c(Cl)c1 [B4A, 2-[4-[(3R,4R)-6-[4-(2-carboxyethyl)-2,6-dichloro-phenoxy]-3,4-dihydroxy-hexoxy]-3,5-dichloro-anilino]-Benzoic Acid]	excellent inhibitors of fibrillogenesis	3.3 ± 1.2	4.4±3.0	70 ± 9	increased the potency of binding	4400 ± 1200	–	–	–
O=C(O)CCc1cc(Cl)c(OCCCOCCOc2c(Cl)cc(Nc3ccncc3C(=O)O)cc2Cl)c(Cl)c1 [B27, 4-[4-[2-[3-[4-(2-Carboxyethyl)-2,6-dichloro-phenoxy]-propoxy]-ethoxy]-3,5-Dichloro-anilino]-Pyridine-3-Carboxylic Acid]	–	12 ± 1.1	12±1.1	–	preservation of the properties	–	–	–	–
O=C(O)CCc1ccc(OCC[C@@H](O)[C@H](O)CCOc2ccc(Nc3ccccc3C(=O)O)cc2Cl)c(Cl)c1 [B22, 2-[4-[(3R,4R)-6-[4-(2-Carboxyethyl)-2-chloro-phenoxy]-3,4-dihydroxy-hexoxy]-3-chloro-anilino]Benzoic Acid]	reduced potency	15 ± 2.8	15±2.8	–	reduction in the observed potency	–	–	–	–
O=C(O)CCc1cc(Cl)c(OCC/C=C/CCOc2c(Cl)cc(Nc3ccccc3C(=O)O)cc2Cl)c(Cl)c1 [B14, 2-[4-[(E)-6-[4-(2-Carboxyethyl)-2,6-dichloro-phenoxy]-hex-3-enoxy]-3,5-dichloro-anilino]-Benzoic Acid]	Antifibrillogenic activity was reduced	13 ± 3.2	13±3.2	80 ± 8	–	–	11000 ± 2900	–	–
O=C(O)CCc1cc(Cl)c(OCCOCCCCOc2c(Cl)cc(Nc3ccccc3C(=O)O)cc2Cl)c(Cl)c1 [B2, 2-[4-[4-[2-[4-(2-Carboxyethyl)-2,6-dichloro-phenoxy]-ethoxy]-butoxy]-3,5-dichloro-anilino]-Benzoic Acid]	excellent inhibitors of fibrillogenesis	4.4 ± 1.5	4.4±1.5	–	increased the potency of binding	–	2600 ± 590	–	–
O=C(O)CCc1cc(Cl)c(OCC[C@H](O)[C@@H](O)CCOc2c(Cl)cc(Nc3ccccc3C(=O)O)cc2Cl)c(Cl)c1 [B4, 2-[4-[(3S,4S)-6-[4-(2-Carboxyethyl)-2,6-dichloro-phenoxy]-3,4-dihydroxy-hexoxy]-3,5-dichloro-anilino]-benzoic acid]	excellent inhibitors of fibrillogenesis	4.4 ± 3.0	–	–	increased the potency of binding	–	–	–	–
O=C(O)CCc1cc(Cl)c(OCCCOCCOc2c(Cl)cc(Nc3ccnnc3C(=O)O)cc2Cl)c(Cl)c1 [B25, 4-[4-[2-[3-[4-(2-Carboxyethyl)-2,6-dichloro-phenoxy]-propoxy]-ethoxy]-3,5-dichloro-anilino]-Pyridazine-3-Carboxylic acid]	–	11 ± 4.8	11±4.8	–	preservation of the properties	–	3300 ± 1800	–	–
O=C(O)CCc1ccc(OCCC(O)C(O)CCOc2c(Cl)cc(Nc3ccccc3C(=O)O)cc2Cl)c(Cl)c1 (stereo not drawn) [B21, 2-[4-[6-[4-(2-Carboxyethyl)-2-chloro-phenoxy]-3,4-dihydroxy-hexoxy]-3,5-dichloro-anilino]-Benzoic Acid]	reduced potency	15 ± 2.8	15±2.8	70 ± 4	reduction in the observed potency	–	4100 ± 2100	–	–
O=C(O)CCc1cc(Cl)c(OCCCOCCOc2c(Cl)cc(Nc3ccccc3C(=O)O)cc2Cl)c(Cl)c1 [B1, 2-[4-[2-[3-[4-(2-Carboxyethyl)-2,6-dichloro-phenoxy]-propoxy]-ethoxy]-3,5-dichloro-anilino]-Benzoic Acid]	excellent inhibitors of fibrillogenesis	5.2 ± 3.6	5.2±3.6	100 ± 30	increased the potency of binding	–	1100 ± 110	–	–
O=C(O)CCc1cc(Cl)c(OCCCOCCOc2c(Cl)cc(Nc3cnncc3C(=O)O)cc2Cl)c(Cl)c1 [B24, 5-[4-[2-[3-[4-(2-Carboxyethyl)-2,6-dichloro-phenoxy]-propoxy]-ethoxy]-3,5-dichloro-anilino]-Pyridazine-4-Carboxylic acid]	–	13 ± 8.2	13±8.2	100 ± 5	slight reduction of binding potency	–	7900 ± 1400	–	–
Cc1n[nH]c(C)c1CCCOc1cc(C(=O)O)ccc1F [AG10, acoramidis, reference compound]	–	–	–	–	–	–	–	significantly lower inhibitory effect	–
O=C(O)COCCOCCOCCOc1c(Cl)cc(Nc2ccccc2C(=O)O)cc1Cl [B5, 2-[4-[2-[2-[2-(Carboxymethoxy)-ethoxy]-ethoxy]-ethoxy]-3,5-dichloro-anilino]-Benzoic Acid]	Antifibrillogenic activity was reduced	28.8 ± 13.4	28.8±13.4	5000 ± 400	reduced binding	–	–	–	higher values of IC50
O=C(O)CCOCCCOCCCOCCCOc1c(Cl)cc(Nc2ccccc2C(=O)O)cc1Cl [B6, 2-[4-[3-[3-[3-(2-Carboxy-ethoxy)-propoxy]-propoxy]-propoxy]-3,5-dichloro-anilino]-Benzoic Acid]	Antifibrillogenic activity was reduced	12 ± 4.4	12±4.4	1200 ± 410	reduced binding	–	40000 ± 13000	–	higher values of IC50
O=C(O)CCc1cc(Cl)c(OCOCCCOc2c(Cl)cc(Nc3ccccc3C(=O)O)cc2Cl)c(Cl)c1 [B8, 2-[4-[3-[[4-(2-Carboxyethyl)-2,6-dichloro-phenoxy]-methoxy]-propoxy]-3,5-dichloro-anilino]-Benzoic Acid]	Antifibrillogenic activity was reduced	12 ± 3.7	12±3.7	2100 ± 210	reduced binding	–	> 150000	–	higher values of IC50
O=C(O)CCc1cc(Cl)c(OCC[C@@H](O)[C@H](O)CCOc2ccc(Nc3ccccc3C(=O)O)cc2Cl)c(Cl)c1 [B20, 2-[4-[(3R,4R)-6-[4-(2-Carboxyethyl)-2,6-dichloro-phenoxy]-3,4-dihydroxy-hexoxy]-3-chloro-anilino]-Benzoic Acid]	reduced potency	11 ± 4.1	11±4.1	–	reduction in the observed potency	–	–	–	–
